Laboratory results reported in US5482934A, “Pregna-1,4-diene3,20-dione-16-17-acetal-21 esters, process for their preparation, composition, and methods for the treatment of inflammatory conditions” (priority 1994, dated 1996).

Columns and labels:
thymus = system: thymus; set-up: species or system Male Wistar rats; conditions: rat, in vivo, 10080 min
Excerpt: All of the steroids described in this invention are pharmacologically active compounds. The glucocorticoid activity of these products was studied in comparison with that of budesonide: pregna-1,4-diene-3,20-dione, 16,17-butylidenebis(oxy)-11-21-dihydroxy-(11β,16α). The pharmacologic action on the acetonides triamcinolone acetonide and flunisolide was also studied.
(§1) Anti-inflammatory effects of the compounds were screened in the cotton pellet granuloma bioassay for identification of lead compounds. (Meier et al., Eperimentia 6, 469, 1950). Male Wistar rats were used, ranging in weight between 90 and 120 g, at the rate of 10 animals per group, previously identified and quartered in individual cages. The animals had free access to feed and drink throughout the trial.
(§2) Cotton pellets weighing exactly 20 mg were prepared, sterilized for 2 hr. at 160° C. soaked with 50 λl solution of the product or with the solvent before implantation, and subsequently the solvent is evaporated before application. The implantation was performed subcutaneously in the axillary zone of the animals previously anesthetized with ether (right axilla pellet with product, left axilla pellet with solvent). Animals in which pellets without product were implanted were used as controls.
(§3) The drug was applied in alcohol solution at 4 dosage levels. Once the pellets were implanted, the animals were kept under normal rearing conditions, isolated for 7 days and then weighed, after which they were sacrificed by exsanguination.
Extraction and weighing of the thymus and adrenals were performed in all animals and a fluorometric determination of the cortisol plasma levels was made. We consider the variation in these parameters indicative of the systemic glucocorticoid activity of the products.
(§4) Anti-inflammatory ED50 (topical effect), thymus inhibition ED50 (systemic effect), therapeutic index (systemic ED50 /topical ED50), and the therapeutic index relative to budesonide (=1).
(§5) All of the ED50 values were calculated from the linear regression lines with the confidence limits.

[1] = system: cotton-pellet-induced granuloma; experiment: cotton pellet granuloma bioassay, topical anti-inflammatory activity (inhibitory effect on granuloma weight); format: in vivo, Male Wistar rats; conditions: for Topical anti-inflammatory activity (Cotton Pellet), ED50: local application on implanted pellet, 4 dosage levels, 7 days; for Therapeutic index systemic ED50 / topical ED50: thymus inhibition ED50 / cotton pellet ED50, 10080 min
Excerpt: The glucocorticoid activity of these products was studied in comparison with that of budesonide: pregna-1,4-diene-3,20-dione, 16,17-butylidenebis(oxy)-11-21-dihydroxy-(11β,16α). The pharmacologic action on the acetonides triamcinolone acetonide and flunisolide was also studied.
as §1, §2, §3
The topical activity was determined by the inhibitory effect on the weight of the cotton-pellet-induced granuloma; the granulomas were extracted and weighed (pellet and connective tissue surrounding them, dried for 24 hr in a 60° oven, and weighed).
as §4, §5

[2] = corticosteroids used in aerosol form; cited from earlier work

| Structure (SMILES) | Systemic glucocorticoid activity (Thymus inhibition), ED50 (thymus) | Topical anti-inflammatory activity (Cotton Pellet), ED50 [1] | Therapeutic index systemic ED50 / topical ED50 [1] | effect in aerosol form [2] |
| --- | --- | --- | --- | --- |
| CCCCC1OC2CC3C4CCC5=CC(=O)C=CC5(C)C4C(O)CC3(C)C2(C(=O)COC(C)=O)O1 (centres unmarked) [Compound 12] | 592.2 μg/pellet | 74.7 μg/pellet | 7.9 |  |
| CC(C)C(=O)OCC(=O)C12OC(C3CCCCC3)OC1CC1C3CC(F)C4=CC(=O)C=CC4(C)C3(F)C(O)CC12C (centres unmarked) [Compound 15] | 56.3 μg/pellet | 5.2 μg/pellet | 10.8 |  |
| CC(C)C(=O)OCC(=O)C12OC(C3CCCCC3)OC1CC1C3CC(F)C4=CC(=O)C=CC4(C)C3(F)C(O)CC12C [Compound 14, (22S)-pregna-1,4-diene-3,20-dione-16,17-(cyclohexylmethylidine)-bis-(oxy)-6,9-difluoro-11-hydroxy-21-(s-methyl-1-oxo-propoxy)-(11β,16α)] | 49 μg/pellet | 3.6 μg/pellet | 13.6 |  |
| CC(C)C(=O)OCC(=O)C12OC(C3CCCCC3)OC1CC1C3CCC4=CC(=O)C=CC4(C)C3C(O)CC12C [Compound 7, (22R,S)-pregna 1,4-diene-3,20-dione, 16,17-[[cyclohexylmethylidyne]bis (oxy)]-11-hydroxy-21-(2-methyl-1-oxo-propoxy)-(11β,16α)] | 614.7 μg/pellet | 21.7 μg/pellet | 28.3 |  |
| CCCCC1OC2CC3C4CCC5=CC(=O)C=CC5(C)C4C(O)CC3(C)C2(C(=O)COC(C)=O)O1 [Compound 11, (22S)-pregna 1,4-diene-3,20-dione-21-(acetyloxy)-11-hydroxy-16,17-(pentylidene)-bis-(oxy)-(11β,16α)] | 555.3 μg/pellet | 43 μg/pellet | 12.9 |  |
| CC1(C)O[C@@H]2C[C@H]3[C@@H]4CCC5=CC(=O)C=C[C@]5(C)[C@@]4(F)[C@@H](O)C[C@]3(C)[C@]2(C(=O)CO)O1 (stereo in doubt) [TRIAMCINOLONE ACETONIDE, triamcinolone acetonide, reference compound] | 156.4 μg/pellet | 220.7 μg/pellet | 0.7 | highly positive effect |
| CCCCC1OC2CC3C4CCC5=CC(=O)C=CC5(C)C4C(O)CC3(C)C2(C(=O)COC(C)=O)O1 [Compound 10, (22R,S)-of pregna 1,4-diene-3,20-dione-21-(acetyloxy)-11-hydroxy-16,17-(pentylidene) bis(oxy)-(11β,16α)] | 583.2 μg/pellet | 59.9 μg/pellet | 9.7 |  |
| CC(C)C(=O)OCC(=O)C12OC(C3CCCCC3)OC1CC1C3CCC4=CC(=O)C=CC4(C)C3C(O)CC12C (centres unmarked) [Compound 9] | 667.1 μg/pellet | 25.4 μg/pellet | 26.2 |  |
| CCCC1O[C@@H]2C[C@H]3[C@@H]4CCC5=CC(=O)C=C[C@]5(C)[C@H]4[C@@H](O)C[C@]3(C)[C@]2(C(=O)CO)O1 (stereo partly drawn) [BUDESONIDE, pregna-1,4-diene-3,20-dione, 16,17-butylidenebis(oxy)-11-21-dihydroxy-(11β,16α), reference compound] | 178.6 μg/pellet | 163.6 μg/pellet | 1.09 | highly positive effect |
| CC(C)C(=O)OCC(=O)C12OC(C3CCCCC3)OC1CC1C3CC(F)C4=CC(=O)C=CC4(C)C3(F)C(O)CC12C [Compound 13, (22R,S)-pregna 1,4-diene-3,20-dione-16,17-(cyclohyxylmethylidine)-bis-(oxy)-6,9-difluoro-11-hydroxy-21-(methyl-1-oxo-propoxy)-(11β,16α)] | 54 μg/pellet | 4.5 μg/pellet | 12 |  |
| CC1(C)O[C@@H]2C[C@H]3[C@@H]4C[C@H](F)C5=CC(=O)C=C[C@]5(C)[C@H]4[C@@H](O)C[C@]3(C)[C@]2(C(=O)CO)O1 [FLUNISOLIDE, flunisolide, reference compound] | 156 μg/pellet | 351.6 μg/pellet | 0.44 | highly positive effect |
| CC(C)C(=O)OCC(=O)C12OC(C3CCCCC3)OC1CC1C3CCC4=CC(=O)C=CC4(C)C3C(O)CC12C [Compound 8, (22,S)-pregna 1,4-diene-3,20-dione 16,17-[[cyclohexyl-methylidyne]bis (oxy)]-11-hydroxy-21-(2-methyl-1-oxo-propoxy)-(11β,16α)] | 608 μg/pellet | 20.5 μg/pellet | 29.6 |  |
| CCC(=O)OCC(=O)[C@@]1(OC(=O)CC)[C@@H](C)C[C@H]2[C@@H]3CCC4=CC(=O)C=C[C@]4(C)[C@@]3(Cl)[C@@H](O)C[C@@]21C [beclomethasone dipropionate] |  |  |  | highly positive effect |
| CCCCC(=O)O[C@]1(C(=O)CO)[C@@H](C)C[C@H]2[C@@H]3CCC4=CC(=O)C=C[C@]4(C)[C@@]3(F)[C@@H](O)C[C@@]21C [betamethasone valerate] |  |  |  | highly positive effect |
